GI50 and TGI data for 37 molecules are collected here from PubChem BioAssay (NCI).

The structures appear in SMILES notation. “And” between values parts separate entries of the source, which are not always exact repeats. Identical values can stand only once.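 Method: 48-hour compound exposure of cells in 96-well plates, five concentrations, linear interpolation of endpoints. GI50 = concentration required for 50% inhibition of growth. TGI denotes the concentration required for complete inhibition of growth.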

The assay concerns MDA-MB-468 breast. In words: growth of human tumour cells (NCI), 48 h.
Turning to `CCOC(=O)c1c(NC(=O)c2cccc(C(F)(F)F)c2)sc2c(CN(C)C)c(O)ccc12`, the GI50 is 1.72 µM and the TGI was 3.8 µM.

On to `COC(=O)[C@@H](C)C[C@H](Cc1ccccc1)NC(=O)c1csc([C@@H](C[C@H](C(C)C)N(C)C(=O)[C@@H](NC(=O)[C@H]2CCCCN2C)C2CCCCC2)OC(C)=O)n1`, for which the GI50 is 0.000311 µM and 0.0025 µM; the TGI is over 25 µM.

Consider `COc1ccc(O)c(C(=O)c2ccc(C(=O)N[C@H]3CCCNC[C@@H]3NC(=O)c3ccncc3)cc2)c1F`, for which the GI50 was 0.552 µM and the TGI was over 25 µM.

For the molecule `OCCCNc1nccc(-c2c(-c3ccc(F)cc3)nn3cc(C(F)(F)F)ccc23)n1`, the GI50 is 6.72 µM and the TGI is over 20.3 µM.

With `C=C1C(=O)O[C@H]2[C@H]1CC/C(COC(=O)/C=C\C(=O)NCc1ccc(Cn3c(=O)sn(CCCC)c3=O)cc1)=C\CC[C@@]1(C)O[C@@H]21`, the GI50 was 0.348 µM and the TGI worked out at 1.39 µM.

Regarding `N=C(N)c1ccc2nc(-c3cc(CC(=O)N[C@@H](CC(=O)O)C(=O)O)cc(-c4cc(S(N)(=O)=O)ccc4O)c3O)[nH]c2c1`, the GI50 was over 100 µM and the TGI was over 100 µM.

Take `O=C(NNc1nc2cc(F)c(F)cc2n2c(CN3CC4CNCC4C3)ccc12)c1cnccn1` (centres undefined): the GI50 is 1.34 µM and the TGI stood at 6.54 µM.

On to `CN(CCO)c1ccc(N2Cc3ccccc3OC3=C2C(=O)c2c(O)ccc(O)c2C3=O)cn1`, for which the GI50 is 0.257 µM and the TGI stood at 0.659 µM.

For `Cc1cc(C)c(NC(=O)c2sc3nc4c(cc3c2N)CN(Cc2ccccc2)CC4)c(C)c1`, the GI50 is 1.78 µM and the TGI is 88.7 µM.

On to `NC(=O)OCCn1cc(-c2nc(-c3c[nH]c4ncccc34)cs2)c2ccccc21`, for which the GI50 was 1.33 µM and the TGI is 3.8 µM.

`CCN(Cc1ccccc1C)c1ccc(CO)c(Cl)c1`: the GI50 is 0.0388 µM and the TGI was 0.288 µM.

In the case of `CCCCCOc1ccc(/C=N/Nc2cc(C)nc3ccc(Br)cc23)cc1`, the GI50 was 1.83 µM and the TGI was 3.57 µM.

For `O=C1NC(=NCCc2cccc(Cl)c2)S/C1=C\c1ccc2ncccc2c1`, the GI50 was over 25 µM and the TGI is over 25 µM.

In the case of `C1=C\COCc2cc(ccc2OCCN2CCCC2)Nc2nccc(n2)-c2cccc(c2)COC/1`, the GI50 is 1.32 µM and the TGI stood at 3.79 µM.

Take `COc1ccc(-c2ccc(-c3ccc(C(=N)N)s3)s2)cc1`: the GI50 is 0.187 µM and the TGI is 0.379 µM.

As to `O[C@H](c1cc(C(F)(F)F)nc2c(C(F)(F)F)cccc12)[C@@H]1CCCCN1`, the GI50 is 1.72 µM and the TGI turned out to be 4.19 µM.

With `O=C(CSc1nnc(-c2ccc(Cl)cc2)n1-c1ccccc1)Nc1cccc(F)c1`, the GI50 is 4.31 µM and the TGI was over 100 µM.

On to `O=S(=O)(Nc1ccc(F)cc1F)c1ccc(-c2cnc(C3CC3)o2)cc1`, for which the GI50 was 0.39 µM and the TGI was 7.86 µM.

Regarding `Cc1[nH]c(/C=C2\C(=O)Nc3ccccc32)c(C)c1CCC(=O)O`, the GI50 is 25.6 µM and the TGI came to 70 µM.

In the case of `C#COc1cccc(Nc2c(C#N)cnc3ncc(NC(=O)CCl)cc23)c1`, the GI50 was 12.7 µM and the TGI turned out to be 60.3 µM.

Take `Cc1cc(C)c(/C=C2\C(=O)Nc3ccc(NC(=O)CCCCCCC(=O)NO)cc32)[nH]1`: the GI50 was 0.367 µM and the TGI worked out at 22.6 µM.

In the case of `CCCOc1ccc2sc(NC(=O)OC)nc2c1`, the GI50 was 1.19 µM and the TGI was over 100 µM.

As for `O=C(CSC1CCc2ccccc21)N/N=C/c1ccccc1O` (centres undefined), the GI50 is 2.73 µM and the TGI was found to be 13.9 µM.

Take `C[C@H]1[C@H](C)CC[C@]2(C(=O)Nc3ccc4ncccc4c3)CC[C@]3(C)C(=CC[C@@H]4[C@@]5(C)CCCNC(C)(C)[C@@H]5CC[C@]43C)[C@H]12`: the GI50 was 1.74 µM and the TGI came to 3.45 µM.

On to `COc1cc(/C=C/C(=O)c2cc(OC)c(OC)c(OC)c2)ccc1OCc1ccc(F)cc1`, for which the GI50 is 2.84 µM and the TGI is over 100 µM.

Take `O=C1NC(=O)/C(=C\c2ccccc2)C2=C1CCCC2`: the GI50 is 10.1 µM and the TGI stood at 30.2 µM.

`COc1cc(OC)c(/C=C/c2c3ccccc3cc[n+]2C)c(OC)c1`: the GI50 was 0.266 µM and the TGI was 2.66 µM.

On to `O=C(Nc1ccc(-n2ccc3c(NC(=O)c4ccccc4)nccc32)cc1)Nc1ccc(Cl)c(Cl)c1`, for which the GI50 was 1.41 µM and the TGI came to 2.96 µM.

Regarding `COCC1(CO)C(=O)C2CCN1CC2` (centres undefined), the GI50 was 18.4 µM and the TGI came to 40.3 µM.

For the molecule `O=C(c1ccc(/C=C/c2n[nH]c3ccccc23)cc1)N1CCNCC1`, the GI50 is 2.45 µM and 9.15 µM; the TGI is > 10 µM and 22.5 µM.

Turning to `CCn1c(=O)c2c(=O)c3c4c(oc3oc2c2ccccc21)C(=O)c1ccccc1C4=O`, the GI50 was 0.199 µM and the TGI was 0.701 µM.

`CC(=O)Oc1ccccc1C(=O)Nc1ncc([N+](=O)[O-])s1`: the GI50 was 1.93 µM and the TGI was 7.64 µM.

On to `COc1ccc(-n2c(C)cc(-c3ccccc3)c2C)cc1`, for which the GI50 was 1.31 µM and the TGI was found to be 3.47 µM.

`Cn1cc(C2=C(c3cccc(Br)c3)C(=O)NC2=O)c2ccccc21`: the GI50 was 6.7 µM and the TGI was over 25 µM.

Take `CCN1C(=O)N(CC)C2C1NN=c1s/c(=C3\C(=O)N(CC(C)(C)C)c4ccccc43)c(=O)n12` (centres undefined): the GI50 was 3.85 µM and the TGI amounted to 18.8 µM.

Regarding `O=C1NC(=O)C(c2cccc([N+](=O)[O-])c2)=C1Nc1cc(Cl)c(O)c(Cl)c1`, the GI50 is 12.3 µM and the TGI is over 25 µM.

Turning to `CCOC(=O)/C=C(/C)Sc1cc(O)c2ccccc2c1O`, the GI50 was 3.55 µM and the TGI came to 12.1 µM.
